Experimental data: the NIST ThermoML archive (doi:10.1021/je100720x)
Numbers after ± are expanded uncertainties.

Assay: osmotic coefficient (dimensionless); mn = molality of the nth substance listed, in mol/kg
Settings: 298.15 K, Liquid, isopiestic method

CCn1cc[n+](C)c1.[Br-] [1-ethyl-3-methylimidazolium bromide] + O
osmotic coefficient (m1 = 0.5514): 0.811 ± 0.011
osmotic coefficient (m1 = 0.6588): 0.801 ± 0.011
osmotic coefficient (m1 = 0.6883): 0.799 ± 0.011
osmotic coefficient (m1 = 0.7764): 0.795 ± 0.011
osmotic coefficient (m1 = 0.9367): 0.787 ± 0.011
osmotic coefficient (m1 = 1.04): 0.786 ± 0.011
osmotic coefficient (m1 = 1.943): 0.763 ± 0.011
osmotic coefficient (m1 = 2.308): 0.757 ± 0.011
osmotic coefficient (m1 = 2.542): 0.759 ± 0.011
osmotic coefficient (m1 = 3.189): 0.763 ± 0.011
osmotic coefficient (m1 = 4.359): 0.786 ± 0.011
osmotic coefficient (m1 = 5.41): 0.821 ± 0.01
osmotic coefficient (m1 = 7.17): 0.883 ± 0.01

O=P([O-])([O-])O.[K+].[K+] [dipotassium hydrogen phosphate] + O
osmotic coefficient (m1 = 0.6496): 0.711 ± 0.012
osmotic coefficient (m1 = 0.7592): 0.704 ± 0.013
osmotic coefficient (m1 = 1.112): 0.69 ± 0.013
osmotic coefficient (m1 = 1.251): 0.69 ± 0.013
osmotic coefficient (m1 = 1.604): 0.689 ± 0.013
osmotic coefficient (m1 = 1.712): 0.694 ± 0.013
osmotic coefficient (m1 = 1.965): 0.696 ± 0.013
osmotic coefficient (m1 = 2.163): 0.709 ± 0.013

O=P([O-])(O)O.[K+] [monopotassium phosphate] + O
osmotic coefficient (m1 = 0.6269): 0.8 ± 0.011
osmotic coefficient (m1 = 0.9843): 0.744 ± 0.012
osmotic coefficient (m1 = 1.113): 0.731 ± 0.012
osmotic coefficient (m1 = 1.228): 0.717 ± 0.012
osmotic coefficient (m1 = 1.27): 0.715 ± 0.012
osmotic coefficient (m1 = 1.508): 0.696 ± 0.013
osmotic coefficient (m1 = 1.707): 0.68 ± 0.013

O=P([O-])([O-])[O-].[K+].[K+].[K+] [tripotassium phosphate] + O
osmotic coefficient (m1 = 0.4308): 0.694 ± 0.013
osmotic coefficient (m1 = 0.5142): 0.698 ± 0.013
osmotic coefficient (m1 = 0.6347): 0.705 ± 0.013
osmotic coefficient (m1 = 0.7575): 0.708 ± 0.013
osmotic coefficient (m1 = 0.8132): 0.716 ± 0.012
osmotic coefficient (m1 = 1.002): 0.744 ± 0.012
osmotic coefficient (m1 = 1.012): 0.745 ± 0.012
osmotic coefficient (m1 = 1.241): 0.778 ± 0.011
osmotic coefficient (m1 = 1.695): 0.866 ± 0.01
osmotic coefficient (m1 = 1.83): 0.893 ± 0.01
